Columns and labels:
[1] = test system: Salmonella Enteritidis IF03313; experiment: Permeability of pathogenic microbes when treatment sheets were laid on vomit; assay type: cell-based; conditions: 1000 ppm available chlorine
Text: 1) Chlorous acid aqueous solution formulation (see Example 1: Table 11) Treatment sheet (material: 100% cotton): (about 27×40 cm) *Impregnated at a ratio of weight of treatment sheet (g): amount of liquid (ml)=1:3 2) Imitation vomit (hereinafter, referred to as vomit) Miso solution: adjusted to pH 2 with hydrochloric acid 3) Test Microbes that were used E. coli: Escherichia coli IF03927 Staphylococcus aureus: Staphylococcus aureus IF0 12732 Thermoduric Microbes (Bacillus cereus): Bacillus cereus NBRC15305 Microbes of the genus Salmonella: Salmonella Enteritidis IF03313 Enterohemorrhagic Escherichia coli 0157: Escherichia coli 0157 Enterohemorrhagic Escherichia coli 0111: Escherichia coli 0111 Enterohemorrhagic Escherichia coli 026: Escherichia coli O26
Permeability of pathogenic microbes into a treatment sheet when treating vomit was examined to compare effects of preventing secondary contamination. (1) Imitation vomit is spread in an area about the size of an A4 sheet. (2) 30 agent solution-containing treatment sheets were laid thereon and left standing for 10 minutes. (3) Treatment sheets were removed one at a time from the top. After diluting with saline, the sample was spread in a petri dish and cultured.

[2] = Deodorizing effect (chemical deodorization, gas detector tube); conditions: 400 ppm, spray 20 cc
Text: In order to evaluate tests on deodorizing effects, the present Example examined deodorizing effects by using standards regarding air freshening and deodorization ([II]-2 Method of Testing Deodorizing Efficacy (Chemical Deodorization)) set forth by the Air Fresheners and Deodorizers Conference (http://www.houkou.gr.jp/) as the efficacy testing method, which is adopted by Japan Food Research Laboratories.
Ammonium odor: Ammonium Standard Solution II (Wako Pure Chemical Industries, for testing malodorous substances) Amine odor: methyl mercaptan standard solution (Wako Pure Chemical Industries, for testing malodorous substances) Sulfur odor: hydrogen sulfide (self-made, used hydrogen sulfide that was generated by adding sulfuric acid to zinc sulfide)
Gas detector tube made by GASTEC Corporation Ammonium odor: Detector tube ammonium 3 L made by GASTEC Corporation Amino odor: Detector tube methyl mercaptan 71 made by GASTEC Corporation Sulfur odor: Detector tube hydrogen sulfide 4 LL made by GASTEC Corporation
Tests were conducted in compliance with ([II]-2 Method of Testing Deodorizing Efficacy (Chemical Deodorization)) set forth by the Air Fresheners and Deodorizers Conference.
The tests were carried out by static culture method, using a commercially-available airbag with a spigot having a volume of about 10 L as test containers. The volume of airbags was appropriately changed in accordance with the size of the product.
The bags were filled with odorless air. Malodor concentrations were measured over time at room temperature (about 20° C.). (3 points or higher, detection tube method (FIG. 16), measured by an instrument analysis method or olfactory measurement method. When decrease in the blank was observed, the decrease was suitably corrected. When measuring by olfactory measuring method, the airbag spigot was opened for direct sniffing, or gas was transferred to an odor bag while wearing a mask to perform olfactory measurement in an autonomic respiration form. Measured air was not returned to the source).
Next, for amine odor (methyl mercaptan), the residual concentrations were detected and recorded for control (no specimen), 20 ml (cc) of distilled water, sodium hypochlorite (expressed as Na hypochlorite, 400 ppm), and chlorous acid aqueous solution (expressed as CAAS, 400 ppm) prior to spraying and 0 hour, 3 hours, 6 hours, 9 hours, and 24 hours after spraying. The experiment was conducted twice.

[3] = first experiment (Table 55), 0 h after spraying
[4] = first experiment (Table 55), 3 h after spraying
[5] = first experiment (Table 55), 6 h after spraying
[6] = first experiment (Table 55), 9 h after spraying
[7] = first experiment (Table 55), 24 h after spraying
[8] = first experiment (Table 55), before spraying
[9] = second experiment (Table 56), 0 h after spraying
[10] = second experiment (Table 56), 3 h after spraying
[11] = second experiment (Table 56), 6 h after spraying
[12] = second experiment (Table 56), 9 h after spraying
[13] = second experiment (Table 56), 24 h after spraying
[14] = second experiment (Table 56), before spraying

OCl [Sodium Hypochlorite, sodium hypochlorite]
Microbe count, 1 sheet laid on imitation vomit ([1]; Day 0 at 25° C.): 2.0 × 10^2
Microbe count, 2 sheets laid on imitation vomit ([1]; Day 0 at 25° C.): <10
Microbe count, 3 sheets laid on imitation vomit ([1]; Day 0 at 25° C.): <10
Microbe count, 4 sheets laid on imitation vomit ([1]; Day 0 at 25° C.): <10
Microbe count, 5 sheets laid on imitation vomit ([1]; Day 0 at 25° C.): <10
Microbe count, 6 sheets laid on imitation vomit ([1]; Day 0 at 25° C.): <10
Microbe count, 8 sheets laid on imitation vomit ([1]; Day 0 at 25° C.): <10
Microbe count, 10 sheets laid on imitation vomit ([1]; Day 0 at 25° C.): <10
Microbe count, 20 sheets laid on imitation vomit ([1]; Day 0 at 25° C.): <10
Microbe count, 30 sheets laid on imitation vomit ([1]; Day 0 at 25° C.): <10
Microbe count, 1 sheet laid on imitation vomit ([1]; Day 7 at 25° C.): >10^6
Microbe count, 2 sheets laid on imitation vomit ([1]; Day 7 at 25° C.): >10^6
Microbe count, 3 sheets laid on imitation vomit ([1]; Day 7 at 25° C.): >10^6
Microbe count, 4 sheets laid on imitation vomit ([1]; Day 7 at 25° C.): >10^6
Microbe count, 5 sheets laid on imitation vomit ([1]; Day 7 at 25° C.): >10^6
Microbe count, 6 sheets laid on imitation vomit ([1]; Day 7 at 25° C.): >10^6
Microbe count, 8 sheets laid on imitation vomit ([1]; Day 7 at 25° C.): 1.1 × 10^4
Microbe count, 10 sheets laid on imitation vomit ([1]; Day 7 at 25° C.): 7.1 × 10^2
Microbe count, 20 sheets laid on imitation vomit ([1]; Day 7 at 25° C.): <10
Microbe count, 30 sheets laid on imitation vomit ([1]; Day 7 at 25° C.): <10
residual concentration of methyl mercaptan, after correction (Control = 100) [2, 3]: 22
residual concentration of methyl mercaptan, before correction [2, 3]: 20 ppm
residual concentration of methyl mercaptan, after correction (Control = 100) [2, 4]: 0
residual concentration of methyl mercaptan, before correction [2, 4]: 0 ppm
residual concentration of methyl mercaptan, after correction (Control = 100) [2, 5]: 0
residual concentration of methyl mercaptan, before correction [2, 5]: 0 ppm
residual concentration of methyl mercaptan, after correction (Control = 100) [2, 6]: 14
residual concentration of methyl mercaptan, before correction [2, 6]: 5 ppm
residual concentration of methyl mercaptan, after correction (Control = 100) [2, 7]: 25
residual concentration of methyl mercaptan, before correction [2, 7]: 6 ppm
residual concentration of methyl mercaptan, after correction (Control = 100) [2, 8]: 100
residual concentration of methyl mercaptan, before correction [2, 8]: 90 ppm
residual concentration of methyl mercaptan, after correction (Control = 100) [2, 9]: 11
residual concentration of methyl mercaptan, before correction [2, 9]: 8 ppm
residual concentration of methyl mercaptan, after correction (Control = 100) [2, 10]: 11
residual concentration of methyl mercaptan, before correction [2, 10]: 5 ppm
residual concentration of methyl mercaptan, after correction (Control = 100) [2, 11]: 12
residual concentration of methyl mercaptan, before correction [2, 11]: 5 ppm
residual concentration of methyl mercaptan, after correction (Control = 100) [2, 12]: 24
residual concentration of methyl mercaptan, before correction [2, 12]: 7 ppm
residual concentration of methyl mercaptan, after correction (Control = 100) [2, 13]: 35
residual concentration of methyl mercaptan, before correction [2, 13]: 5 ppm
residual concentration of methyl mercaptan, after correction (Control = 100) [2, 14]: 100
residual concentration of methyl mercaptan, before correction [2, 14]: 70 ppm
